Source: paper PMC9607644, “Glycoconjugation of Quinoline Derivatives Using the C-6 Position in Sugars as a Strategy for Improving the Selectivity and Cytotoxicity of Functionalized Compounds” (Molecules, 2022)

Columns and labels:
NHDF-Neo cells = test: Annexin V-FITC/PI apoptosis flow cytometry, NHDF-Neo; assay type: cell-based; settings: IC50 dose, 24 h
Excerpt: This is important information from the point of view of drug design, as it provides detailed information on the cytotoxicity of a compound. Apoptosis is a natural biological process involving programmed cell death and plays an important role in maintaining correct homeostasis between cell proliferation and cell death. This is in contrast to necrosis, which is accompanied by acute inflammation, preceded by cell degradation due to the loss of the integrity of the cell membrane. It is possible to distinguish viable cells from apoptotic and necrotic cell fractions using Annexin V-FITC and Propidium Iodide (PI). Annexin V-FITC labels phosphatidylserine residues that, after the start of apoptosis, are located on the outer surface of the cell membrane, enabling the identification of cells in the early stages of apoptosis. PI binds stoichiometrically to intracellular DNA during late apoptosis and necrosis when the cell membrane has been damaged. This combination allows for the differentiation of early apoptotic (A+/P−), late apoptotic (A+/P+), necrosis (A−/P+), and normal (A−/P−) cells that can be quantified by flow cytometry. The experiments were performed on the HCT-116 and MCF-7 cancer cell lines and the NHDF-Neo healthy cell line. […] The results of the level of apoptosis induction by the tested compounds are presented in Figure 7 and in the Supplementary Materials (Figure S73).
The cell cycle and the type of cell death induced by the test compounds were measured by using flow cytometry according to the manufacturer’s protocol. The cells were seeded into 6-well plates at a density of 3 × 10^5 (HCT-116) or 4 × 10^5 (MCF-7, NHDF-Neo) per well (3 mL) and allowed to attach for 24 h under standard conditions with 5% CO2 at 37 °C. The following day, the medium was removed and cells were treated with solutions of test compounds in fresh medium at a dose equal to their IC50 values. Control cells were grown with fresh medium supplemented with 0.5% DMSO. After 24 h of incubation, the cells were collected by trypsinization. Then, samples were centrifuged (3 min, 2000 rpm, RT) and washed with PBS, after which the cells were centrifuged again (3 min, 2000 rpm, RT) and the supernatant was carefully removed. The resulting precipitate contained cells, which were used for flow cytometry experiments.
The fraction of dead cells after treatment with the test compounds were detected using the FITC Annexin-V Apoptosis Detection Kit with PI (BioLegend, San Diego, CA, USA). First, cells were suspended in 50 μL of cold Annexin-V Binding Buffer (BioLegend, San Diego, CA, USA) and incubated in the dark with 2.5 μL of antibody Annexin-V FITC and 10 μL of propidium iodide (PI) at 37 °C for 20 min. 250 μL of the Annexin-V Binding Buffer was then added and the samples were incubated in the dark on ice for 15 min. Cytometric analyses were performed using an Aria III flow cytometer (Becton Dickinson, Franklin Lakes, NJ, USA) with the FITC configuration (488 nm excitation; emission: LP mirror 503, BP filter 530/30) or PE configuration (547 nm excitation; emission: 585 nm) and at least 10,000 cells were counted.

ctDNA = test: Intercalation study, UV-Vis absorption titration with ctDNA; assay type: binding, calf; settings: 50 µM glycoconjugate, ctDNA 3 to 300 µM, Tris-HCl pH 7.5, 2 h 37 °C
Procedure: Due to the steric and electron features, quinoline-based compounds are well-known DNA intercalating agents. Therefore, the antiproliferative action of quinoline-related compounds can be related among others to intercalating between two adjacent base pairs of duplex DNA and inhibiting nucleic acid synthesis. […] The binding of the A-2 and E-2 to ctDNA has been characterized through absorption titration, which is an effective technique for DNA intercalation studies. The experiments were carried out for a constant concentration of glycoconjugates with increasing concentrations of ctDNA.
For the DNA binding studies, all experiments were carried out in molecular biology grade Tris-HCl buffer at pH 7.5 (EURx, Poland). The purity of the calf thymus DNA (ctDNA) (Sigma-Aldrich, St. Louis, MO, USA) was determined by measuring the ratio of UV absorbance at 260 and 280 nm. Here, the ratio was in the range of 1.8–1.9, indicating the DNA was sufficiently free from protein. The concentration of ctDNA was determined from the absorbance at 260 nm and using a molar absorption coefficient ε = 6600 M^−1 cm^−1 [68]. […] The samples were incubated for 2 h at 37 °C with gently shaking and the absorption spectra were measured using a UV–Vis-NIR spectrophotometer JASCO V-570 (Tokyo, Japan) in the range of 200–400 nm.

HCT-116 cells = test: Wound healing assay, HCT-116; assay type: cell-based, human; settings: IC50 concentration, observed for 72 h
Procedure: (§1) This experiment consisted in making a “wound” in a confluent monolayer of HCT-116 and MCF-7 cells, which were next treated with the test compounds at their IC50 concentrations. […] In the control, cell migration from the edges of the wound is visible, gradually filling the gap. After 72 h, the wounds are almost completely covered with cells. In the same way, cell migration is observed in healthy NHDF cells.
(§2) To analyze the migration properties of cells exposed to test compounds, a wound-healing assay was performed as reported in the literature. The cells were seeded into 6-well plates at a density of 3 × 10^5 (HCT-116) or 4 × 10^5 (MCF-7, NHDF-Neo) per well (3 mL) and allowed to attach for 24 h under standard conditions with 5% CO2 at 37 °C. After forming a confluent monolayer, a linear scratch in each sample with a 200 µL pipette tip was made and the first photo at time zero was taken. The cells were washed with PBS and then treated with solutions of test compounds in a fresh medium at a dose equal to their IC50 values. Control cells were grown with fresh medium supplemented with 0.5% DMSO. The cells were incubated and monitored for 72 h under standard conditions with 5% CO2 at 37 °C. Cell monitoring and photos were taken using Live Cell Movie Analyzer, JuLI™ Br & FL (NanoEnTek Inc., Seoul, Korea).

MCF-7 cells = test: Wound healing assay, MCF-7; assay type: cell-based, human; settings: IC50 concentration, observed for 72 h
Procedure: as §1, §2

| Compound | cells in late apoptosis, NHDF-Neo (NHDF-Neo cells) [%] | necrotic cells, NHDF-Neo (NHDF-Neo cells) [%] | binding to ctDNA, change of UV-Vis absorption spectrum (ctDNA) | dead cell fraction, NHDF-Neo (NHDF-Neo cells) [%] | cell migration, HCT-116 (HCT-116 cells) | cell migration, MCF-7 (MCF-7 cells) | normal cells remained, NHDF-Neo (NHDF-Neo cells) [%] |
| --- | --- | --- | --- | --- | --- | --- | --- |
| OC[C@H]1O[C@@H](n2cc(COc3cccc4cccnc34)nn2)[C@H](O)[C@@H](O)[C@@H]1O [Compound E-2, reference compound] | 57 | 9 | hypochromic and bathochromic effects | – | – | – | – |
| O[C@@H]1[C@@H](O)[C@@H](O[C@H]2O[C@H](Cn3cc(COc4cccc5cccnc45)nn3)[C@@H](O)[C@H](O)[C@H]2O)O[C@H](Cn2cc(COc3cccc4cccnc34)nn2)[C@H]1O [Compound D-2] | – | – | – | 51 | – | – | – |
| CC(=O)OC1O[C@H](Cn2cc(COc3cccc4cccnc34)nn2)[C@@H](OC(C)=O)[C@H](OC(C)=O)[C@H]1OC(C)=O (stereo partly shown) [Compound A-1] | – | – | – | – | significantly slower migration | significantly slower migration | 98 |
| CC(=O)OC[C@H]1O[C@@H](n2cc(COc3cccc4cccnc34)nn2)[C@H](OC(C)=O)[C@@H](OC(C)=O)[C@@H]1OC(C)=O [Compound E-1, reference compound] | 61 | 14 | – | – | – | – | – |
| OC1O[C@H](Cn2cc(COc3cccc4cccnc34)nn2)[C@@H](O)[C@H](O)[C@H]1O (stereo partly shown) [Compound A-2] | – | – | hypochromic and bathochromic effects | – | significantly slower migration | significantly slower migration | 95 |
